By Ki is commonly meant the dissociation constant of the complex between target and ligand, obtained from inhibition or displacement.

In data set [1] the target is T1, caspase-like activity of human 20S proteasome (Homo sapiens, UniProt P28072).
T1 construct: purchased Boston Biochem, Inc
Kind of data set: Proteasome activity measurement, caspase-like. It is filed as biochemical. As to conditions: purified human 20S proteasome, Z-Leu-Leu-Glu-AMC, uncompetitive. How it is done: (§1) Suc-Leu-Leu-Val-Tyr-AMC, Bz-Val-Gly-Arg-AMC and Z-Leu-Leu-Glu-AMC (Bachem, Bubendorf, Switzerland) were used for the chymotrypsin-like, trypsin-like and caspase-like activites, respectively. Assay buffer consisted of TE buffer (20 mM Tris (pH = 8.0), 0.5 mM EDTA, 0.03% SDS). Substrate hydrolysis was continuously monitored at 37°C with an automated microplate reader (Tecan Safire^2). Measured fluorescence values (RFU) were plotted versus time with nonlinear regression to fit a Michaelis-Menten plot.
(§2) For the Ki determination, 25 µL of substrate at three concentrations and 25 µL of inhibitor of interest also at three different concentrations were added to the wells of a white microplate. The reaction was initiated with 50 µL of the enzyme in the assay buffer. Flourescence of the AMC release was continuously monitored at 420 nm with 320 nm excitation.
(§3) Km and Ki were calculated using SigmaPlot 11 (Enzyme Kinetics Module 1.3) and are presented as the mean of three independent experiments.

In data set [2] the test system is NFκB transcriptional activity in Ramos-Blue cells. Put plainly: Quanti-blue assay, NFκB transcriptional activity (SEAP reporter). It counts as cell-based, human. As to conditions: 50 µM pretreatment 1 h, TNF-α 100 ng/mL, 8 h. How it is done:
Ramos-Blue™ cells (Invivogen), which stably express an NF-κB/AP-1-inducible secreted embryonic alkaline phosphate (SEAP) reporter construct, were assayed for NFκB transcriptional activity changes upon pretreating them with the compound of interest (50 µM) for 1 h and subsequently stimulating them with recombinant TNF-α (100 ng/mL). SEAP activity was determined in the supernatant in accordance with the manufacturer’s instructions. Briefly, to 200 µL of QUANTI-Blue regent 20 µL of cell supernatant was added and incubated at 37°C for 3 h. Abosorbance was measured on microplate reader Tecan Safire^2 at 640 nm.

Data set [3] has as its target Thrombin. On the set-up: method as in PMID 15497744, PMID 15544050, PMID 17484277. As to conditions: amidolytic assay, chromogenic substrate; determined previously; cited from earlier work.
Data set [4] deals with T2, trypsin-like activity of human 20S proteasome (Homo sapiens, UniProt Q99436).
T2 construct: purchased Boston Biochem, Inc
Kind of data set: Proteasome activity measurement, trypsin-like. It counts as biochemical. The following applies: for Ki: purified human 20S proteasome, Bz-Val-Gly-Arg-AMC, non-competitive. How it is done:
as §1, §2, §3

The test system of data set [5] is peripheral blood mononuclear cells (PBMC). Kind of data set: Metabolic activity assay (MTS), PBMC. It is filed as cell-based, human. As to conditions: 50 µM, 24 h. How it is done:
(§4) Compounds 11, and 14–16 were further tested for selective cytotoxicity. The experiments were conducted on freshly isolated primary peripheral blood mononuclear cells (PBMC) and three other haematological cancers: human T cell leukaemia (Jurkat), human histiocytic lymphoma (U937) and human Burkitt’s lymphoma (Daudi). An MTS assay was performed following 24 h of treatment with the compound of interest at 50 µM. […] The inhibition of proliferation in Ramos cells, mediated with compounds 15 and 16, was concentration dependent.
(§5) Cells (1×10^5 cells/mL for Ramos, Daudi, U937 and Jurkat, and 1×10^6 cells/mL for PBMC) were treated with the appropriate amounts of compounds of interest or corresponding vehicle (control cells), then seeded in triplicate in 96 well plates. The metabolic activity was assessed using the CellTiter 96® Aqueous One Solution Cell Proliferation Assay (Promega, Madison/WI, USA), in accordance with the manufacturer’s instructions.

Data set [6] deals with human Burkitt’s lymphoma (Daudi). Kind of data set: Metabolic activity assay (MTS), Daudi. It counts as cell-based. As to conditions: 50 µM, 24 h. How it is done: as §4, §5
For data set [7], the system named is Ramos Burkitt’s lymphoma cells. Kind of data set: Metabolic activity assay (MTS), Ramos. It is filed as cell-based, human. As to conditions: 24 h; for residual metabolic activity relative to control: 50 µM; for cytotoxicity group (Figure 3A) / viability at 100 µM: 100 µM; for viability at 100 µM: Homo sapiens, read-out: residual metabolic activity relative to untreated control. How it is done:
When investigating the potency of selected serine protease inhibitors to induce cell death in human B lymphoma cells, we identified a set of compounds cytotoxic for Burkitt’s lymphoma. Using a metabolic activity assay (MTS), we evaluated the proliferation rate of Ramos Burkitt’s lymphoma cells, in the presence of serine protease inhibitors. Cells were treated for 24 h with the compound of interest at concentrations of 100 µM (1–13, 15, 16) or 50 µM (14). After a comparison of metabolic activity relative to that in the untreated control, three groups with distinct modes of action were determined (Figure 3A). […] The second group (compounds 1–3, 5, 7 and 13) caused a moderate decrease (50% to 80%) relative to untreated cells. The last group of compounds (11, 15, 16) severely impaired the metabolic activity, such that it fell to under 6%.
as §5

Data set [8] addresses T3, chymotrypsin-like activity of human 20S proteasome (Homo sapiens, UniProt P28074).
T3 construct: purchased Boston Biochem, Inc
Kind of data set: Proteasome activity measurement, chymotrypsin-like. It counts as biochemical. The following applies: purified human 20S proteasome, Suc-Leu-Leu-Val-Tyr-AMC, uncompetitive. As to the method:
as §1, §2, §3

Data set [9] deals with human T cell leukaemia (Jurkat). Kind of data set: Metabolic activity assay (MTS), Jurkat. It counts as cell-based. As to conditions: 50 µM, 24 h. As to the method:
as §4, §5

Data set [10] concerns the target α-chymotrypsin (Bos taurus, UniProt P00766). Kind of data set: α-Chymotrypsin inhibition assay.
Method: In short, a 1 nM solution of α-chymotrypsin was mixed with various concentrations of the substrate Suc-Ala-Ala-Pro-Phe-AMC. All the solutions were prepared in 144 mM Tris–HCl, pH 7.8. Substrate hydrolysis was monitored at 30°C on an automated Tecan Safire^2 microplate reader (Tecan, Mannedorf/Zürich, Switzerland). The initial rates of the reactions (ΔF/Δt) were measured immediately after the addition of the substrate (within 200 s) and plotted versus substrate concentration with nonlinear regression to fit a Michaelis-Menten plot. The curve fit and kinetic parameters (Km and v max) were calculated using GraphPad PRISM version 5.0 software (GraphPad Software, Inc., CA, USA). […] The initial velocities of the hydrolysis reactions were measured under the same conditions as described for the determination of Km. 50 µl of α-chymotrypsin solution was added to 50 µl of each inhibitor solution (prepared in 144 mM Tris–HCl, pH 7.8; final concentration 1 nM) and incubated at 30°C for 15 min. The reaction was initiated with the addition of 100 µl of substrate. […] The Ki values were determined as mean values of all measurements.
Data set [11] relates to procaspase-3 cleavage in Ramos cells. Put plainly: Western blot analysis of caspase-3 processing. It counts as cell-based, human. The following applies: compound 50 µM, zVad-fmk 50 µM. As to the method:
Ramos cells were seeded in 6-well culture plates at a concentration of 1×10^6 cells/mL and treated with the compound of interest or corresponding vehicle for 1 h, 2 h or 6 h. After the indicated time points, cells were harvested, washed in ice-cold PBS and lysed in modified RIPA buffer (50 mM Tris-HCl, pH 7.4, 150 mM NaCl, 1% NP−40, 0.25% Na-deoxycholate, 1 mM EDTA, 1 µg/mL aprotinin, 1 mM PMSF and 1× Halt Phosphatase inhibitor cocktail (Thermo Scientific, Pierce Biotechnology, IL, USA)). The lysates were sonicated, rocked on ice for 30 min and centrifuged at 13,000 rpm at 4°C for 15 min. Protein samples were electrophoresed in SDS-polyacrylamide gels and then transferred to nitrocellulose membranes. The primary antibodies used were against ubiquitin, phospho-IκBα, IκBα, p65 and caspase-3 (Cell Signaling, Danvers/MA, USA), and p105/p50 (Santa Cruz Biotechnology, Inc., Santa Cruz/CA, USA), and ß-actin (Sigma-Aldrich). Following incubation with the primary antibody, membranes were washed six times and incubated for 1 h at room temperature with the corresponding dilution of the appropriate secondary antibody conjugated with horseradish peroxidase (Upstate, Temecula, CA, USA). The immunoreactivity of respective proteins of interest was determined by chemiluminescence using the SuperSignal West Femto substrate (Pierce, IL, USA), in accordance with the manufacturer's instructions. […]
In general terms: In western blotting, separated proteins are transferred to a membrane and probed.

Data set [12] concerns human histiocytic lymphoma (U937). Kind of data set: Metabolic activity assay (MTS), U937. It is filed as cell-based. The following applies: U937, 50 µM, 24 h. As to the method: as §4, §5

Consider `N=C(N)N1CCC(CN(NS(=O)(=O)c2ccc3ccccc3c2)C(=O)N2CCCCC2)CC1` [Compound 15], for which the “Ki ' caspase-like activity” value in data set [1] was “Ki ' = 165±26 µM”. Further, in data set [2], the “reduction of TNF-α-induced NFκB activity (SEAP)” value is on record as “over 60%”. For the same molecule, the Ki in [3] is 0.47 µM; in data set [4] it was 13 µM; in [10], 27.6 µM. Besides, the “residual metabolic activity relative to control” value in data set [5] is “no or only moderate decreases”; in [6], “severe and selective decrease”; in data set [7], “severe and selective decrease”; in data set [9], “no or only moderate decreases”; in data set [12], “no or only moderate decreases”. In addition, in [7], the “cytotoxicity group (Figure 3A)” value was “severely cytotoxic (severely impaired the metabolic activity, such that it fell to under 6%)”. Moreover, the viability at 100 µM in data set [7] was below 6%. Moreover, the “Ki ' chymotrypsin-like activity” value in [8] is on record as “Ki ' = 84±15 µM”. The “compound-induced procaspase-3 cleavage after zVad-fmk pretreatment” value in [11] is given as “completely blocked”.

`N=C(N)N1CCC(CN(NS(=O)(=O)c2ccc3ccccc3c2)C(=O)N2CCCCCC2)CC1` [Compound 16]: the “Ki ' caspase-like activity” value in [1] was “Ki ' = 70±3 µM”. Also, the “reduction of TNF-α-induced NFκB activity (SEAP)” value in data set [2] is listed as “over 60%”. In addition, the Ki was 0.5 µM in data set [3], 17 µM in [4] and 28.7 µM in data set [10]. In data set [4] (SigmaPlot 11), the “mode of inhibition, trypsin-like activity” value is on record as “non-competitive”. Moreover, the “residual metabolic activity relative to control” value in data set [5] was “no or only moderate decreases”; in data set [6], “severe and selective decrease”; in data set [7] it was “severe and selective decrease”; in data set [9], “no or only moderate decreases”; in [12] it was “no or only moderate decreases”. The “cytotoxicity group (Figure 3A)” value in data set [7] is on record as “severely cytotoxic (severely impaired the metabolic activity, such that it fell to under 6%)”. Besides, the viability at 100 µM in data set [7] was below 6%. Further, in data set [8], the “Ki ' chymotrypsin-like activity” value is recorded as “Ki ' = 37±13 µM”. Also, the “compound-induced procaspase-3 cleavage after zVad-fmk pretreatment” value in data set [11] is “completely blocked”.

The values above are taken from article PMC3408433, “Selective Cytotoxicity of Amidinopiperidine Based Compounds Towards Burkitt’s Lymphoma Cells Involves Proteasome Inhibition” (PLoS ONE, 2012).
